Assay results: paper PMC9308754 (Chembiochem, 2022)
Several values for one entry are separate records, joined by “and”; a condition that tells them apart may be missing. Equal values may be shown once. Read-outs that look alike come from different tables or passages of the source.

Legend:
acetyl tubulin = test: Western blotting, acetylated tubulin in HL60 cells; format: cell-based; details: Western blot, 48 a/b at 10 μM
hHDAC1 = hHDAC1 (Homo sapiens, UniProt Q13547); format: biochemical
HDAC10 [1] = biological target: T1, HDAC10 (Homo sapiens, UniProt Q969S8); test: HDAC10 binding assay
T1 sequence (Q969S8 1-669): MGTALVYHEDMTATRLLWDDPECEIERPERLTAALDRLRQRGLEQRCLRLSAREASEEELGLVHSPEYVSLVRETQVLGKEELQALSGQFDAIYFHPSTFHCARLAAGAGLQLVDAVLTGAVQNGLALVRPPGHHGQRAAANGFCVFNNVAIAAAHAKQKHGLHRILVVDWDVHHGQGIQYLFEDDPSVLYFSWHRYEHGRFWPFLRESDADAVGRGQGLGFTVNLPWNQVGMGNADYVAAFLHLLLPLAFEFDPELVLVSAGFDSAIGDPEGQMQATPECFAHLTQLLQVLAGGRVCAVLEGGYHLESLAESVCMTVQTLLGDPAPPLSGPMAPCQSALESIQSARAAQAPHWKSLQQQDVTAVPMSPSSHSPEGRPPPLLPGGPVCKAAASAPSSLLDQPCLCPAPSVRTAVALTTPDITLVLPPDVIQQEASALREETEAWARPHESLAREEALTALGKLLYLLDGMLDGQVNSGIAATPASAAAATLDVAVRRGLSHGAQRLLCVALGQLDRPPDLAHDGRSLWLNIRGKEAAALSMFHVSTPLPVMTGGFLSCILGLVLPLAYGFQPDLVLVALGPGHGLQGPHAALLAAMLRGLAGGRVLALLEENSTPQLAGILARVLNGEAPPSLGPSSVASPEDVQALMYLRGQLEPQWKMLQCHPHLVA

HDAC10 [2] = biological target: T1, HDAC10; test: BRET assay for HDAC10; format: cell-based
hHDAC6 = biological target: T2, hHDAC6 (Homo sapiens, UniProt Q9UBN7); test: hHDAC6 activity assay; format: biochemical
T2 sequence (Q9UBN7 1-1215): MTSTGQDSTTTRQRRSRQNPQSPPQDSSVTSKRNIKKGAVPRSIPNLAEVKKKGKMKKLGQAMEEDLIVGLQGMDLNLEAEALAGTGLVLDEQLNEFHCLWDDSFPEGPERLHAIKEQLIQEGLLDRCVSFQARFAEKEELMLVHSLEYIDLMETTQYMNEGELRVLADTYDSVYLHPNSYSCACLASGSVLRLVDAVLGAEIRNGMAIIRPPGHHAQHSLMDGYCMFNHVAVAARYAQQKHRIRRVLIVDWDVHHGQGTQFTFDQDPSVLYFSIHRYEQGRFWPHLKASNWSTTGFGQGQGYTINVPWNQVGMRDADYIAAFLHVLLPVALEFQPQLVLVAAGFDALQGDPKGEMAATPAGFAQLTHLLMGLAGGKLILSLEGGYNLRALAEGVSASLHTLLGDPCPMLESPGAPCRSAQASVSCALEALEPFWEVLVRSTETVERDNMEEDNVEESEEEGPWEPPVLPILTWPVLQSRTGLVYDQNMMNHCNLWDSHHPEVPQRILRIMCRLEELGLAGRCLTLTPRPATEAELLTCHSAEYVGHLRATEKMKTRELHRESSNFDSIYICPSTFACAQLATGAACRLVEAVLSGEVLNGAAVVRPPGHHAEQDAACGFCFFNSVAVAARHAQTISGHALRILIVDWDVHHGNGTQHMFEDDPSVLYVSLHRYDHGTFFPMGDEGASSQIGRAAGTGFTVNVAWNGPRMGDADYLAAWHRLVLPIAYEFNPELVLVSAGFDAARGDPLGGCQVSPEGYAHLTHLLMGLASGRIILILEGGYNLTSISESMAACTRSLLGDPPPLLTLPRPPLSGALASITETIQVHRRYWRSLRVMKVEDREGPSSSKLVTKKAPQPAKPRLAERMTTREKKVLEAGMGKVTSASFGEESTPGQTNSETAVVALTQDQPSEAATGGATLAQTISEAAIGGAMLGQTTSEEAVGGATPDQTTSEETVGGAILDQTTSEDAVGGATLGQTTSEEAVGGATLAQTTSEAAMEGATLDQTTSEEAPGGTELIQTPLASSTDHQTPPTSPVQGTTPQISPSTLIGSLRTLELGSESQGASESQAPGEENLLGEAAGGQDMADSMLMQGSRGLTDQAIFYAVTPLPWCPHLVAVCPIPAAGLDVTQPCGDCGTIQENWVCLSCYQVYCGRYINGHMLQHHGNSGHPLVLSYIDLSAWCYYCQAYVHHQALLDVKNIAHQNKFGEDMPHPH

acetyl Histone H3 = test: Western blotting, acetylation of histone H3 in HL60 cells; format: cell-based; details: Western blot, 48 a/b at 10 μM
hHDAC8 = biological target: T3, hHDAC8 (Homo sapiens, UniProt Q9BY41); test: biochemical
T3 sequence (Q9BY41 1-377): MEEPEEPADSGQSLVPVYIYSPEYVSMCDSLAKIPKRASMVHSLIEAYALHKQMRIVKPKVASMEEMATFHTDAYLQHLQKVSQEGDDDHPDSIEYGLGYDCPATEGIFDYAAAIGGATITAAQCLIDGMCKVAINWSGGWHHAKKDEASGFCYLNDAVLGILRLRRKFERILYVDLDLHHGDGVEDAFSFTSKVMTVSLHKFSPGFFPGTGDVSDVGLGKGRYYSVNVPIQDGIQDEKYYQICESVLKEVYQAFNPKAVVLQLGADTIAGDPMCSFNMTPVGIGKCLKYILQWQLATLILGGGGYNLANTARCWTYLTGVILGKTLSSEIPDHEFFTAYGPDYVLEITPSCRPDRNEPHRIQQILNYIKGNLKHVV

SK‐N‐BE(2)‐C cells [3] = test: LysoTracker assay, fluorescence microscopy; format: cell-based; details: 24 h after treatment
SK‐N‐BE(2)‐C cells [4] = test: LysoTracker assay, flow cytometry; format: cell-based; details: for increase of LysoTracker signal normalized against DMSO control: concentration differs per compound (Table 8)
drHDAC10 [5] = biological target: T4, drHDAC10 (Danio rerio, UniProt F1QCV2); test: NDA assay drHDAC10; details: for inhibition at 0.1 µM / inhibition at 1 µM: read-out: NDA assay drHDAC10 % inhibition
T4 sequence (F1QCV2 2-675 limits assumed): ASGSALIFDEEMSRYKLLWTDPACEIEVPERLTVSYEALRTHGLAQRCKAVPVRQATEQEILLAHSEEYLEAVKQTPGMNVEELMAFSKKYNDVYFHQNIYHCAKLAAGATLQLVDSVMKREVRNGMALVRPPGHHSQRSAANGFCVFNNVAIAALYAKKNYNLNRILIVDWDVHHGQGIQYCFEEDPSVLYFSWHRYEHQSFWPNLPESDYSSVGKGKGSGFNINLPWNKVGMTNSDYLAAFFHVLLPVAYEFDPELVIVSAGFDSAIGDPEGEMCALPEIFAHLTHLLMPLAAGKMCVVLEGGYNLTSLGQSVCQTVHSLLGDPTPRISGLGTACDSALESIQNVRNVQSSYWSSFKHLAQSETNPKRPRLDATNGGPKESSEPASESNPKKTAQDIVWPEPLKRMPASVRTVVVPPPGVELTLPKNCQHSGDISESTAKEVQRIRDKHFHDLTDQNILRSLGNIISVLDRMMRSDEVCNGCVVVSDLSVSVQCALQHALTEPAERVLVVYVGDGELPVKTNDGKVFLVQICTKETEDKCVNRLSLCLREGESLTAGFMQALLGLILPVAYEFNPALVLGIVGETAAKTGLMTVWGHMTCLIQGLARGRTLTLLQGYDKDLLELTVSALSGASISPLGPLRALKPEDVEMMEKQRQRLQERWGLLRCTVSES

HDAC10 [6] = biological target: T1, HDAC10; details: read-out: BRET assay (EC50); in‐cellulo; ref 32 (Géraldy et al.); cited from earlier work
drHDAC10 [7] = biological target: T4, drHDAC10; test: Proof of substrate conversion by HPLC; format: biochemical, Danio rerio (zebrafish); details: drHDAC10 0.027 mg/mL, up to 45 min
SK‐N‐BE(2)‐C cells [8] = details: 7.5 μM, flow cytometry; ref 16b; cited from earlier work
HDAC10 [9] = biological target: T1, HDAC10; details: TR‐FRET and BRET displacement assays; cited from earlier work
[10] = @ 1 (concentration unit not given)
[11] = @ 10 (concentration unit not given)

Sequence of hHDAC1 (Q13547 whole entry): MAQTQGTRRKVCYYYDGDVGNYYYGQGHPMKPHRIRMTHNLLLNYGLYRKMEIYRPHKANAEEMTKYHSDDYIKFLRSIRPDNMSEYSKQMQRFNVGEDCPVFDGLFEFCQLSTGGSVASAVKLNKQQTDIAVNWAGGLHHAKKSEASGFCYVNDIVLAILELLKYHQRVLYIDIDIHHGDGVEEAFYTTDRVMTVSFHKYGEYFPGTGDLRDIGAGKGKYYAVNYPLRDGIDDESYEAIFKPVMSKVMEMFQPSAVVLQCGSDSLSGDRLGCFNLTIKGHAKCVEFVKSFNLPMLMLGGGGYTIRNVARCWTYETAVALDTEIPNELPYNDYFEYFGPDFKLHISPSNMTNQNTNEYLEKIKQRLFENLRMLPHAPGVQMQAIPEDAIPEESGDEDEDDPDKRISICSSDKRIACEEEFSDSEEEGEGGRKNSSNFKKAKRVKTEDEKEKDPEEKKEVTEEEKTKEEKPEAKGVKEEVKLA

O=C(NO)C1CCN(CCNCc2ccccc2)CC1 [48 a, 1‐(2‐(Benzylamino)ethyl)‐N‐hydroxypiperidine‐4‐carboxamide]
effect on acetyl tubulin (HDAC6) (acetyl tubulin): no increase | hHDAC1 (ZMAL) % inhibition (hHDAC1; [10]): < 10% | hHDAC1 (ZMAL) % inhibition (hHDAC1; [11]): 20% | IC50 (HDAC10 [1]): 5 nM | EC50 (HDAC10 [2]): 26 nM | hHDAC6 (ZMAL) % inhibition (hHDAC6; [10]): <10 % @ 10 <10 % @ 1 | hHDAC6 (ZMAL) % inhibition (hHDAC6; [11]): <10 % @ 10 <10 % @ 1 | effect on acetyl Histone H3 (class I, representative HDAC1) (acetyl Histone H3): no increase | IC50 (hHDAC8; hHDAC8 (FDL) IC50): 1970 ± 309 nM | IC50 (hHDAC8; inhibition of HDAC8): ~1000 nM

Cc1[nH]c2ccccc2c1CCNCc1ccc(/C=C/C(=O)NO)cc1 [panobinostat]
accumulation of lysosomes, LysoTracker signal by fluorescence microscopy (SK‐N‐BE(2)‐C cells [3]): very strong response | increase of LysoTracker signal normalized against DMSO control (SK‐N‐BE(2)‐C cells [4]): up to 3 fold | inhibition at 0.1 µM (drHDAC10 [5]): 65% | inhibition at 1 µM (drHDAC10 [5]): > 95%

O=C(CCCCCCC(=O)Nc1ccccc1)NO [vorinostat]
effect on acetyl tubulin (HDAC6) (acetyl tubulin): robust hyperacetylation | effect on acetyl Histone H3 (class I, representative HDAC1) (acetyl Histone H3): robust hyperacetylation | IC50 (drHDAC10 [5]): 2000 ± 240 nM | inhibition at 0.1 µM (drHDAC10 [5]): < 10% | inhibition at 1 µM (drHDAC10 [5]): 43%

Cn1cc(CNCC2CCN(c3ncc(C(=O)NO)cn3)CC2)c2ccccc21 [quisinostat]
accumulation of lysosomes, LysoTracker signal by fluorescence microscopy (SK‐N‐BE(2)‐C cells [3]): very strong response | increase of LysoTracker signal normalized against DMSO control (SK‐N‐BE(2)‐C cells [4]): up to 3 fold | EC50 (HDAC10 [6]): 40 nM | IC50 (drHDAC10 [5]): 50 nM | inhibition at 0.1 µM (drHDAC10 [5]): 60% | inhibition at 1 µM (drHDAC10 [5]): 91%

Nc1ccccc1NC(=O)c1ccc(CNc2nccc(-c3cccnc3)n2)cc1 [mocetinostat]
inhibition at 0.1 µM (drHDAC10 [5]): < 10% | inhibition at 1 µM (drHDAC10 [5]): < 10%

CN(C)Cc1c(C(=O)NCCOc2ccc(C(=O)NO)cc2)oc2ccccc12 [abexinostat]
accumulation of lysosomes, LysoTracker signal by fluorescence microscopy (SK‐N‐BE(2)‐C cells [3]): very strong response | increase of LysoTracker signal normalized against DMSO control (SK‐N‐BE(2)‐C cells [4]): up to 3 fold | IC50 (drHDAC10 [5]): 134 ± 26 nM | inhibition at 0.1 µM (drHDAC10 [5]): 45% | inhibition at 1 µM (drHDAC10 [5]): > 95%

CCCCOc1ccc(CC(=O)NO)cc1 [bufexamac]
inhibition at 0.1 µM (drHDAC10 [5]): 26% | inhibition at 1 µM (drHDAC10 [5]): 64%

CC(=O)NCCCCNCCC(=O)Nc1ccc2c(C)cc(=O)oc2c1 [Ac‐spermidine‐AMC, 3‐((4‐Acetamidobutyl)amino)‐N‐(4‐methyl‐2‐oxo‐2H‐chromen‐7‐yl)propanamide]
maximal conversion by drHDAC10 (HPLC, fluorescamine derivatization) (drHDAC10 [7]): about 50%

O=C(CCCCCCC(=O)Nc1ccc([C@H]2O[C@@H](CSc3nc(-c4ccccc4)c(-c4ccccc4)o3)C[C@@H](c3ccc(CO)cc3)O2)cc1)NO [tubacin]
accumulation of lysosomes, LysoTracker signal by fluorescence microscopy (SK‐N‐BE(2)‐C cells [3]): No influence | LysoTracker effect (relative signal intensity as compared to control) (SK‐N‐BE(2)‐C cells [8]): 1.1 and 1.1±0.07

O=C(NO)C1CCN(CCNCc2ccc(Br)cc2)CC1 [48 b, 1‐(2‐((4‐Bromobenzyl)amino)ethyl)‐N‐hydroxypiperidine‐4‐carboxamide]
effect on acetyl tubulin (HDAC6) (acetyl tubulin): no increase | hHDAC1 (ZMAL) % inhibition (hHDAC1; [10]): < 10% | hHDAC1 (ZMAL) % inhibition (hHDAC1; [11]): 11% | IC50 (HDAC10 [1]): 2 nM | EC50 (HDAC10 [2]): 10 nM | hHDAC6 (ZMAL) % inhibition (hHDAC6; [10]): < 10% | hHDAC6 (ZMAL) % inhibition (hHDAC6; [11]): 11% | effect on acetyl Histone H3 (class I, representative HDAC1) (acetyl Histone H3): no increase | LysoTracker effect (relative signal intensity as compared to control) (SK‐N‐BE(2)‐C cells [4]; 10 μM): 1.07±0.15 | LysoTracker effect (relative signal intensity as compared to control) (SK‐N‐BE(2)‐C cells [4]; 20.0 μM): 1.04±0.05 | increase of LysoTracker signal normalized against DMSO control (SK‐N‐BE(2)‐C cells [4]): did not show an increase in signal | IC50 (hHDAC8; inhibition of HDAC8): ~1000 nM

CN1CCc2c(c3ccccc3n2Cc2ccc(C(=O)NO)cc2)C1 [tubastatin A]
HDAC10 binding in displacement assays (HDAC10 [9]): bound strongly | IC50 (drHDAC10 [5]): 30 ± 3 nM | inhibition at 0.1 µM (drHDAC10 [5]): 82% | inhibition at 1 µM (drHDAC10 [5]): > 95%
